Measurements from patent publication US11499168B2, “Allele editing and applications thereof” (UNIVERSITÄT BASEL, priority 2016, dated 2022).

Legend:
[1] = tested on: EL-4 cells; details: vanillin vs absence of vanillin; templates 160 bp, 1 kb, 2 kb, 4 kb; FIG. 2F
[2] = Water solubility of HDR enhancing reagents; type: physicochemical
[3] = tested on: CD90.1; experiment: CD90.1 gene deletion by sgRNA in Balb/c CD4+ T cells, flow cytometry; details: sgRNA alone, no template; FIG. 2A
[4] = tested on: Foxp3K276X mutation; experiment: Foxp3 gene repair in Foxp3K276X CD4+ T cells, flow cytometry of CD25 and Foxp3; type: cell-based, mouse
Excerpt: A) Alignment of genomic DNA sequences of wildtype foxp3 (C57BL/6) (SEQ ID NO 038), the Foxp3 locus with a targeted mutation Foxp3K276X (SEQ ID NO 039) which introduces a premature stop codon and the Foxp3 locus of scurfy mice (B6.Cg-Foxp3sf/J) which harbor a spontaneous 2 bp insertion leading to a frame-shift (SEQ ID NO 040). sgRNA binding sites (green line) and PAM sequences (black line). B) Protocol for gene editing of total CD4+ T cells from Foxp3K276X C57BL/6 mice. In vitro activation and electroporation (step 1) with plasmids encoding sgRNA targeting the Foxp3K276X mutation and a circular plasmid containing a 1 kb wildtype (wt) Foxp3 repair template. Successfully transfected cells are isolated based on GFP expression (step 2). Cell expansion in vitro for gene editing in presence of rhIL-2, TGF-β alone or in combination with retinoic acid (RA) and cytokine neutralizing antibodies (anti-IL-4 and anti-IFNγ for 7 days (step 3). C) Experimental setup as in B with total CD4+ T cells from control mice (WT) or Foxp3K276X mice. Flow cytometry of CD25 and Foxp3 expression (gated on live CD4+ T cells). […] Top row: Foxp3 induction with TGF-β alone, bottom row: Foxp3 induction with TGF-β combined with RA. […]

**Q.** For `COc1cc(C=O)ccc1O` [vanillin, 4-Hydroxy-3-methoxybenzaldehyde], which “HDR enhancing effect as a function of dsDNA template length” value [1] is on record?
**A.** The value was “more pronounced for shorter templates”.

**Q.** And the water solubility [2]?
**A.** Its water solubility is “only water soluble compound”.

**Q.** With “CD90.1: sgRNA GTTTGTGAGCTTGGAGTCTG targeting CD90.1 (guide GTTTGTGAGCTTCGAGTCTC; listed as DNA, chemistry not fully specified)” as the compound, how does the “gene deletion in successfully transfected cells” value [3] read?
**A.** The value was “about 20%”.

**Q.** Which “Foxp3 expression, cells” value ([4]; Foxp3K276X CD4+ T cells, Foxp3 induction with TGF-β alone, FIG. 4C top) does the source give for “Foxp3K276X: sgRNA GCAAGATATCTAGTCCATTG targeting the Foxp3K276X mutation (chemistry not given here)” here?
**A.** Its value is “no Foxp3^+ cells were detected”.

**Q.** What about the Foxp3 protein expression ([4]; Foxp3K276X cells, FIG. 4C) of the same compound?
**A.** Its Foxp3 protein expression is “absence of Foxp3 differentiation”.
